Results reported in publication PMC5381946 (PLoS Pathogens, 2017).

How the values were obtained:
[1] = test system: RTA promoter; type: cell-based, human
[2] = test system: KSHV-infected HUVECs; experiment: ELISA of VEGF-A, IL-6 and IL-8 secreted by KSHV-infected HUVECs; type: cell-based, human; settings: S3 Fig
Source text: (§1) KS has been considered as a cytokine disease as KS lesions over-produce cytokines, especially angiogenic growth factors, that contribute to the major pathogenic features of KS [53, 54]. In the early stage, KS is not a real sarcoma but an angiohyperplastic-inflammatory lesion mediated by inflammatory cytokines and angiogenic factors. The finding that the paracrine-regulated angiogenesis requires the redox function of APE1 (Fig 2) prompted us to further investigate if blockade of APE1 redox function by C10 could reduce cytokine and angiogenic factor production. […] Then the culture media were collected and examined for the expression of VEGF-A and IL-6 by ELISA.
(§2) Levels of VEGF-A, IL-6 and IL-8 in cell culture supernatants were determined using specific ELISA kits for human VEGF-A (eBioscience), IL-6 (BD) and IL-8 (Xin Bosheng, China) according to the manufacturer instructions.
Supplementary file ppat.1006289.s003.pdf: S3 Fig Effects of C10 on KSHV-mediated secretion of VEGF-A, IL-6 and IL-8 from HUVECs. KSHV-infected HUVECs were treated with either C10 for 24 hours. After changing media to remove C10 from the media, cells were continued to culture for 24 hours. Then the culture media were collected and examined for the expression of VEGF-A, IL-6 and IL-8 by ELISA. (PDF) Click here for additional data file.

[3] = Cytotoxicity by Trypan blue exclusion in BCBL-1 cells; settings: human
[4] = Cytotoxicity (MTT assay) in iSLK.219 cells; type: cell-based; settings: human
Source text: The medium was replaced with DMSO.
(PDF) Click here for additional data file.

[5] = test system: KSHV-infected PDLSCs; experiment: ELISA of angiogenic growth factors secreted by KSHV-infected PDLSCs; type: cell-based, human; settings: KSHV-PDLSCs treated 24 hours, media changed, collected after a further 24 hours
Source text: as §1, §2

[6] = test system: KSHV
[7] = test system: KSHV-infected PDLSCs; experiment: In vitro Matrigel tube formation assay with KSHV-infected PDLSCs; settings: for paracrine-mediated angiogenesis (tubulogenesis of PDLSCs in conditioned media): conditioned media from KSHV-infected PDLSCs treated 24 hours with compound
[8] = target: T1, APE1 (Homo sapiens, UniProt P27695); experiment: Differential scanning fluorimetry (DSF) thermal shift of APE1; settings: APE1 2 μM, incubated with compound at 37°C for 30 min; melting curves shifted to the left
[9] = target: T2, APE1 redox activity (Homo sapiens, UniProt P27695); experiment: EMSA-based assay for APE1 redox activity (APE1-dependent AP-1 DNA binding); type: biochemical; settings: reduced APE1 0.1 μM, purified c-jun/c-fos
T2 construct: 6xHis (N); made in house; host or cells: E. coli (Roseta)

[10] = target: T1, APE1; experiment: Surface plasmon resonance (SPR) binding to APE1
[11] = test system: KSHV-infected PDLSCs; experiment: Matrigel-transwell cell invasion assay with KSHV-infected PDLSCs; settings: C10 in different concentrations
[12] = target: APE1 exonuclease activity (Homo sapiens, UniProt P27695); experiment: Exonuclease assay for APE1 C-terminal (DNA base excision) activity; type: biochemical
[13] = test system: KSHV; experiment: microbe, parasite or virus in culture; settings: Human gammaherpesvirus 8, 3 h, read-out: EC50 for virion production
[14] = test system: AP-1 promoter; experiment: AP-1 promoter-luciferase reporter assay in 293T cells; type: cell-based, human; settings: TPA induction, varying C10 concentrations
[15] = test system: KSHV; experiment: KSHV lytic DNA replication in doxycycline-induced iSLK.219 cells; type: cell-based, Kaposi's sarcoma-associated herpesvirus (KSHV); settings: Human gammaherpesvirus 8, doxycycline 3 h, then C10, read-out: IC50 for viral lytic DNA replication
[16] = test system: KSHV; experiment: KSHV virion production (encapsidated viral DNA in media) from TPA-induced BCBL-1 cells; type: cell-based, Kaposi's sarcoma-associated herpesvirus (KSHV); settings: for EC50: Human gammaherpesvirus 8, BCBL1, 120 h, TPA-induced BCBL-1, encapsidated viral DNA in media 5 days post-induction, read-out: EC50 for blocking KSHV virion production
[17] = test system: KSHV; experiment: KSHV lytic DNA replication (intracellular viral genomic DNA, real-time PCR) in TPA-induced BCBL-1 cells; type: cell-based, Kaposi's sarcoma-associated herpesvirus (KSHV); settings: Human gammaherpesvirus 8, BCBL1, compound added 3 h post-induction, intracellular viral genomic DNA at 48 h post-induction
[18] = test system: KSHV-induced angiogenesis; experiment: Murine Matrigel plug assay of angiogenesis by KSHV-infected PDLSCs; type: in vivo; settings: C10 in varying concentrations mixed with Matrigel; C57BL/6 mice; day 7
Source text: Next, we employed a murine Matrigel plug assay to examine the ability of C10 to inhibit angiogenesis […]. KSHV-infected and mock-infected PDLSCs were mixed with Matrigel (without any cytokines) and implanted into C57BL/6 mice. In day 7, the matrigel plugs were stripped and examined for new blood vessel formation. […] The effect of C10 on KSHV-mediated angiogenesis in the […] assay was quantitated by measuring the hemoglobin content after homogenizing the Matrigel plugs using Drabkin’s reagent. The result, shown in Fig 6C (right panel), is consistent with that of in vitro Matrigel tubule formation assay.
Female C57BL/6 mice (4 to 6 weeks old) were obtained from the Sun Yat-sen University Animal Center. Five animals were used per treatment group. 5-10x10^6 cells in 100–200 μl medium were prepared and thoroughly mixed with 500 μl matrigels to total volume of 600–800 μl, and subsequently implanted to mice by inguinal injection. After even days, the mice were killed and matrigel plugs were removed. The Matrigel plugs were photographed and subsequently dissolved in 1 ml Dispase reagent for 16 h at 37°C. After removal of debris by centrifugation, hemoglobin was qualified using Drabkin's reagent (Sigma-Aldrich).

[19] = in vitro; settings: human
[20] = set-up: method as in PMID 18627350; settings: cited from earlier work
[21] = test system: retinal angiogenesis; set-up: method as in PMID 20937296, PMID 24624338; settings: in vitro and in an animal model; cited from earlier work
[22] = test system: pancreatic cancer; set-up: method as in PMID 21700832; settings: cell lines and pancreatic cancer xenograft model in mice; cited from earlier work

T1 sequence (P27695 whole entry): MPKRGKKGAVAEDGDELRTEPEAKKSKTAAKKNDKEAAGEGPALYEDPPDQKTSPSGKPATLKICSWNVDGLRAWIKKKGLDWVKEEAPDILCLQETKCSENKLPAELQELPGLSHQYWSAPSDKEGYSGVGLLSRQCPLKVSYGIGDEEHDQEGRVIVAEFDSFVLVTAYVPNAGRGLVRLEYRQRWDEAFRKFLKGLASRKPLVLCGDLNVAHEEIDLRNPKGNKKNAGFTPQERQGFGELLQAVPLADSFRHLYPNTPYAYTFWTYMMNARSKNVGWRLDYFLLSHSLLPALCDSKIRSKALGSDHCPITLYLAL
Sequence of APE1 exonuclease activity (P27695 whole entry): as above
T2 sequence (P27695 whole entry): as above

Cc1ccc(/C=C/C(=O)CC(=O)/C=C/c2ccc(C)o2)o1 [C10, (1E,6E)-1,7-bis(5-methylfuran-2-yl) hepta-1-6-diene-3,5–dione]
TPA-induced RTA promoter activity (luciferase) [1]: able to block | auto-regulation of the RTA promoter activity by RTA (luciferase) [1]: able to block auto-regulation of the RTA promoter activity | KSHV-induced productions of VEGF-A, IL-6 and IL-8 (ELISA) [2]: inhibited by C10 | CC50 at 48 h [3]: 26.4 µM | CC50 at 48 h [4]: 75 µM | levels of secreted angiogenic growth factors (VEGF-A, IL-6) by ELISA [5]: able to reduce the levels of these angiogenic growth factors | SI (CC50 / EC50) [6]: 23.4 | paracrine-mediated angiogenesis (tubulogenesis of PDLSCs in conditioned media) [7]: capable of inhibiting paracrine-mediated angiogenesis | shift of the Tm of APE1 (DSF) [8]: 1.3 °C | IC50 [9]: 17 µM | Kd [10]: 0.189 µM | cell migration and invasion of KSHV-PDLSC (Transwell) [11]: able to block cell migration and invasion | effect on APE1 exonuclease activity ([12]; up to 100 μM of C10): unaffected | EC50 [13]: 3.2 µM | TPA-induced AP-1 promoter activity (luciferase) [14]: able to block | IC50 [15]: 5.8 µM | fold by which EC50 (virion release) is lower than IC50 (intracellular viral DNA replication) ([16]; BCBL-1): 29 fold | selectivity index (CC50 / EC50) ([16]; BCBL-1): 165 | EC50 [16]: 0.16 µM | IC50 [17]: 4.6 µM | KSHV-induced angiogenesis in Matrigel plug (blood vessel formation, hemoglobin content) [18]: dramatically inhibited in a dose dependent manner

CCCCCCCCC/C(=C\C1=C(C)C(=O)C(OC)=C(OC)C1=O)C(=O)O [E3330]
levels of secreted angiogenic growth factors (VEGF-A, IL-6) by ELISA [5]: able to reduce the levels of these angiogenic growth factors | CC50 at 48 h [19]: 112 µM | tubulogenesis of KSHV-PDLSC (total tube length) ([7]; compound present on Matrigel at different concentrations): showed inhibitory activity at higher doses | paracrine-mediated angiogenesis (tubulogenesis of PDLSCs in conditioned media) [7]: capable of inhibiting paracrine-mediated angiogenesis | cytotoxicity [20]: low cytotoxicity | retinal angiogenesis [21]: blocks retinal angiogenesis in vitro and in an animal model | tumor growth [22]: cause tumor growth inhibition | EC50 [16]: 8.5 µM | IC50 [17]: 17.7 µM

O=c1c(O)c(-c2cc(O)c(O)c(O)c2)oc2cc(O)cc(O)c12 [Myrecetin, reference compound]
effect on APE1 exonuclease activity ([12]; positive control, different concentrations): dose-dependent inhibitory response
